The record followed here is patent US20060052399A1, “Oxazolidinone derivatives as antibacterial agents” (AstraZeneca AB, priority 2002, published 2006).

≈ marks a conversion by molar mass, not a printed value.

Assay type in all cases: cell-based
For assay [1], the system named is Staphylococcus aureus MSQS (methicillin sensitive and quinolone sensitive). Nature of the assay: MIC by agar dilution, Staphylococcus aureus MSQS. The following applies: 10^4 CFU/spot, 37° C., 24 hours. The procedure: (§1) The following results were obtained on a standard in-vitro test system. The activity is described in terms of the minimum inhibitory concentration (MIC) determined by the agar-dilution technique with an inoculum size of 10^4 CFU/spot. Typically, compounds are active in the range 0.01 to 256 μg/ml.
(§2) Staphylococci were tested on agar, using an inoculum of 10^4 CFU/spot and an incubation temperature of 37° C. for 24 hours—standard test conditions for the expression of methicillin resistance.

Assay [2] has as its system Staphylococcus aureus MRQR (methicillin resistant and quinolone resistant). Nature of the assay: MIC by agar dilution, Staphylococcus aureus MRQR. The following applies: 10^4 CFU/spot, 37° C., 24 hours. As to the method:
as §1, §2

In the next assay the test system is Streptococcus pneumoniae. Put plainly: MIC by agar dilution, Streptococcus pneumoniae. Conditions: agar with 5% defibrinated horse blood, 10^4 CFU/spot, 37° C., 5% carbon dioxide, 48 hours. As to the method:
as §1
(§3) Streptococci and enterococci were tested on agar supplemented with 5% defibrinated horse blood, an inoculum of 10^4 CFU/spot and an incubation temperature of 37° C. in an atmosphere of 5% carbon dioxide for 48 hours—blood is required for the growth of some of the test organisms. Fastidious Gram negative organisms were tested in Mueller-Hinton broth, supplemented with hemin and NAD, grown aerobically for 24 hours at 37° C., and with an innoculum of 5×10^4 CPU/well.

A further assay concerns Haemophilus influenzae. Put plainly: MIC in Mueller-Hinton broth, Haemophilus influenzae. The following applies: Mueller-Hinton broth with hemin and NAD, aerobic, 24 hours, 37° C. As to the method:
as §1, §3

Another assay concerns Moraxella catarrhalis. Put plainly: MIC in Mueller-Hinton broth, Moraxella catarrhalis. Conditions: Mueller-Hinton broth with hemin and NAD, aerobic, 24 hours, 37° C. The procedure: as §1, §3
The next assay concerns Enterococcus faecium. Put plainly: MIC by agar dilution, Enterococcus faecium. Conditions: agar with 5% defibrinated horse blood, 10^4 CFU/spot, 37° C., 5% carbon dioxide, 48 hours. As to the method: as §1, §3
Assay [3] concerns Linezolid Reistant Streptococcus pneumoniae. Put plainly: MIC by agar dilution, linezolid resistant Streptococcus pneumoniae. Conditions: agar with 5% defibrinated horse blood, 10^4 CFU/spot, 37° C., 5% carbon dioxide, 48 hours. As to the method: as §1, §3

Consider `Cn1nnnc1-c1ccc(-c2ccc(N3CC(CNC(=O)C4CC4)OC3=O)cc2F)cn1` (stereo in doubt) [Example 2, N-[[(5R)-3-[3-Fluoro-4-[6-(1-methyl-1H-1,2,3,4-tetrazol-5-yl)-3-Pyridinyl]phenyl]oxazolidin-2-on-5-yl]methyl]cycloproanecarboxamide], for which the MIC in assay [1] was 2 µg/mL (≈ 4.57 µM); in assay [2], 2 µg/mL (≈ 4.57 µM); in the assay on Streptococcus pneumoniae it was 0.5 µg/mL (≈ 1.14 µM); against Haemophilus influenzae, greater than 64 µg/mL; against Moraxella catarrhalis, 0.5 µg/mL (≈ 1.14 µM); against Enterococcus faecium it was 1 µg/mL (≈ 2.29 µM). Moreover, in assay [3], the MIC amounted to 4 µg/mL (≈ 9.14 µM).
